Measurements published in patent US20240197708A1, “TREATMENT OF PRODROMAL HUNTINGTON DISEASE” (Prilenia Neurotherapeutics Ltd., priority 2021, published 2024).

How the values were obtained:
early-stage HD patients = conditions: disclosed in U.S. Pat. Nos. 10,322,119 and 11,207,310; cited from earlier work
prodromal HD subjects = conditions: 45 mg bid
Protocol: The efficacy of pridopidine for treating prodromal HD is evaluated in a randomized, double-blind, placebo-controlled trial.

[1] = CSF and/or plasma, 52 weeks, vs placebo

CCCN1CCC(c2cccc(S(C)(=O)=O)c2)CC1 [Pridopidine, 4-[3-(methylsulfonyl)phenyl]-1-propyl-piperidine]
functional capacity (early-stage HD patients): maintains, improves or lessens the decline of functional capacity
DMN and functional connectivity (prodromal HD subjects; 52 weeks, vs placebo): maintenance of or less worsening
PBA-s apathy score (prodromal HD subjects; 52 weeks, vs placebo): improvement or less worsening compared to placebo
PBA-s total score (prodromal HD subjects; 52 weeks, vs placebo): improvement or less worsening compared to placebo
cognitive assessments by the HD-CAB battery of tests (prodromal HD subjects; 52 weeks, vs placebo): improves or maintains or show less worsening compared to placebo
cognitive assessments by the SDMT (prodromal HD subjects; 52 weeks, vs placebo): improves, maintains or shows less decline
cortical thickness (prodromal HD subjects; 52 weeks, vs placebo): no decrease or less decrease compared to placebo
motor measure Q-Motor finger tapping (prodromal HD subjects; 52 weeks, vs placebo): maintenance, improvement or less decline compared to placebo
motor measure TMS (prodromal HD subjects; 52 weeks, vs placebo): maintenance, improvement or less decline compared to placebo
total brain volume (prodromal HD subjects; 52 weeks, vs placebo): no decrease or less decrease compared to placebo
ventricular volume (prodromal HD subjects; 52 weeks, vs placebo): decrease or maintenance of ventricular volume or a smaller increase in ventricular volume compared to placebo
volume of the striatal structures caudate and putamen (prodromal HD subjects; 52 weeks, vs placebo): no decrease or less decrease compared to placebo
level of fluid biomarker NfL (prodromal HD subjects; [1]): reduction or maintenance
level of fluid biomarker phospho-tau (prodromal HD subjects; [1]): reduction or maintenance
level of fluid biomarker proenkephalin (prodromal HD subjects; [1]): reduction or maintenance
progression to manifest HD (prodromal HD subjects; over the course of the trial (52 weeks), vs placebo group): less participants in the pridopidine group progressed to manifest HD compared to the placebo group
